Measurements: PMC5013292, “A Putative Bacterial ABC Transporter Circumvents the Essentiality of Signal Peptidase” (mBio, 2016)

Experiments:
[1] = test system: USA300 SAUSA300_0352(K44A) (strain GNE0174); test: Frequency of spontaneous resistance, GNE0174; type: cell-based, S. aureus; conditions: K44A in SAUSA300_0352 in WT USA300 background; fourfold MIC; 37°C, 2 days; approximately 2 orders of magnitude reduced
Description: To determine the frequency of spontaneous resistance, suspensions containing approximately 5 × 10^9 CFU of S. aureus were cultured on MHA plates containing compound 103 at fourfold the MIC; serial dilutions were cultured in parallel on regular MHA to determine the actual number of CFU (input). The frequency of spontaneous resistance was defined as the number of viable colonies able to grow in the presence of compound 103 after culture at 37°C for 2 days (output) divided by input.
(§1) To generate mutations in SAUSA300_0351, _0352, and _0353 genes by homologous recombination, we transformed USA300 Δmcr using targeting constructs created in the vector pIMAY ([24]). To generate mutations in SAUSA300_0351, _0352, and _0353 genes in a cro/cI mutant background, we selected colonies from USA300 Δmcr cultured on plates containing fourfold the MIC of compound 103. Sequencing of PCR products of the cro/cI gene from resistant colonies yielded a clone with a Q16stop codon mutation in cro/cI (strain GNE0173). We further mutated SAUSA300_0351, _0352, and _0353 in this USA300 Δmcr cro/cI (Q16stop) clone to study the contributions of these three genes to cro/cI-mediated resistance.

[2] = test system: cro/cI(−14G→T)(pcro/cI-cro/cI) (GNE0097); test: MIC fold increase, GNE0097; type: cell-based, S. aureus
Description: (§2) MICs were determined according to the standard protocol from the Clinical and Laboratory Standards Institute ([23]). Briefly, S. aureus bacteria were harvested from regular MHA plates that had been cultured for ~20 h at 37°C. Serial dilutions of compound 103 were incubated with bacteria at approximately 10^6 CFU (CFU)/ml in MHB in round-bottom 96 well plates (Corning, Corning, NY) for 22 h at 37°C. MICs were determined by the lowest concentration of compound 103 showing absence of growth by visual inspection.

[3] = test system: S. aureus USA300 SpsB-low; test: MIC, USA300 SpsB-low; type: cell-based; conditions: result in words
Description: as §2
(§3) A strain of USA300 Δmcr overexpressing SpsB (USA300 SpsB-high; GNE0028) was engineered by cloning SpsB under the constitutive sarA promoter into vector pMK4, resulting in SpsB expression that was ~20-fold higher than the wild-type level as determined by Western blotting. A USA300 Δmcr strain that underexpresses SpsB (USA300 SpsB-low; […]) was generated by genomic incorporation of spsB under the isopropyl-β-D-thiogalactopyranoside (IPTG)-sensitive promoter spac; without IPTG, this strain expresses SpsB at ~5% of the wild-type level as determined by Western blotting.

[4] = test system: SpsB Y30C mutant of USA300 Δmcr cro/cI(Q16stop) SAUSA300_0352(K44A); test: MIC fold increase, SpsB Y30C mutant; type: cell-based, S. aureus
Description: as §2

[5] = test system: USA300 WT(pMK4) (GNE0163); test: MIC fold increase, GNE0163; type: cell-based, S. aureus
Description: as §2

[6] = test system: Δmcr cro/cI(Q16stop) (GNE0173); test: MIC fold increase, GNE0173; type: cell-based, S. aureus
Description: as §2, §1

[7] = test system: cro/cI(−62G→A)(pMK4) (GNE0099); test: MIC fold increase, GNE0099; type: cell-based, S. aureus
Description: as §2

[8] = test system: cro/cI(−62G→A)(pcro/cI-cro/cI) (GNE0100); test: MIC fold increase, GNE0100; type: cell-based, S. aureus
Description: as §2

[9] = test system: Δmcr cro/cI(Q16stop) Δ(SAUSA300_0351-SAUSA300_0352-SAUSA300_0353) (GNE0220); test: MIC fold increase, GNE0220; type: cell-based, S. aureus
Description: as §2, §1

[10] = test system: Δmcr cro/cI(Q16stop) ΔSAUSA300_0353 (GNE0210); test: MIC fold increase, GNE0210; type: cell-based, S. aureus
Description: as §2, §1

[11] = test system: SpsB Y30D mutant of USA300 Δmcr cro/cI(Q16stop) SAUSA300_0352(K44A); test: MIC fold increase, SpsB Y30D mutant; type: cell-based, S. aureus
Description: as §2

[12] = test system: S. aureus USA300 SpsB-high; test: MIC, USA300 SpsB-high; type: cell-based; conditions: result in words
Description: as §2, §3

[13] = test system: cro/cI(−14G→T)(pMK4) (GNE0096); test: MIC fold increase, GNE0096; type: cell-based, S. aureus
Description: as §2

[14] = test system: Δmcr cro/cI(Q16stop) ΔSAUSA300_0351 (GNE0209); test: MIC fold increase, GNE0209; type: cell-based, S. aureus
Description: as §2, §1

[15] = test system: SpsB V167F mutant of USA300 Δmcr cro/cI(Q16stop) SAUSA300_0352(K44A); test: MIC fold increase, SpsB V167F mutant; type: cell-based, S. aureus
Description: as §2

[16] = test system: Δmcr cro/cI(Q16stop) SAUSA300_0352(K44A) (GNE0175); test: MIC fold increase, GNE0175; type: cell-based, S. aureus
Description: as §2, §1

[17] = test system: SpsB Y30S mutant of USA300 Δmcr cro/cI(Q16stop) SAUSA300_0352(K44A); test: MIC fold increase, SpsB Y30S mutant; type: cell-based, S. aureus
Description: as §2

[18] = test system: SpsB Y30N mutant of USA300 Δmcr cro/cI(Q16stop) SAUSA300_0352(K44A); test: MIC fold increase, SpsB Y30N mutant; type: cell-based, S. aureus
Description: as §2

[19] = test system: SpsB H68Y mutant of USA300 Δmcr cro/cI(Q16stop) SAUSA300_0352(K44A); test: MIC fold increase, SpsB H68Y mutant; type: cell-based, S. aureus
Description: as §2

[20] = test system: SpsB H69L mutant of USA300 Δmcr cro/cI(Q16stop) SAUSA300_0352(K44A); test: MIC fold increase, SpsB H69L mutant; type: cell-based, S. aureus
Description: as §2

[21] = test system: psarA-SAUSA300_0351_0352_0353 (GNE0162); test: MIC fold increase, GNE0162; type: cell-based, S. aureus
Description: as §2, §1

In the case of `CCCCc1ccc(-c2ccc(C(=O)N[C@@H](CCCCN)C(=O)N(C)[C@@H]3C(=O)N[C@@H](C)C(=O)N[C@H](C(=O)NCC(C)C(=O)O)Cc4ccc(O)c(c4)-c4cc3ccc4O)cc2)cc1` (stereo partly shown) [Compound 103], the “frequency of spontaneous resistance” value [1] is reported as 2 × 10^−9, the “MIC of compound 103 (fold increase versus MIC for USA300 WT)” value ([2]; GNE0097) is reported as 3.0 fold and the resistance phenotype ([2]; GNE0097, plasmid-encoded WT cro/cI, result in words) is reported as “reversed the resistant phenotype”. The “MIC for a strain that underexpresses SpsB” value [3] was “reduced MIC”, the “MIC of compound 103 (fold increase versus MIC for USA300 WT)” value [4] was 4 fold and the “MIC of compound 103 (fold increase versus MIC for USA300 WT)” value [5] was 1.0 fold. For the same compound, the “MIC of compound 103 (fold increase versus MIC for USA300 WT)” value [6] was greater than 32 fold, the “MIC of compound 103 (fold increase versus MIC for USA300 WT)” value [7] was greater than 32 fold and the “MIC of compound 103 (fold increase versus MIC for USA300 WT)” value ([8]; GNE0100) was greater than 32 fold. The resistance phenotype ([8]; GNE0100, plasmid-encoded WT cro/cI, result in words) was “could not complement the phenotype”, the “MIC of compound 103 (fold increase versus MIC for USA300 WT)” value ([9]; GNE0220) was 2.0 fold and the resistance phenotype ([9]; GNE0220, deletion of all 3 ABC transporter genes, result in words) was “reversed the resistant phenotype”. For the same compound, the “MIC of compound 103 (fold increase versus MIC for USA300 WT)” value ([10]; GNE0210) was 1.0 fold, the resistance phenotype ([10]; GNE0210, deletion of SAUSA300_0353, result in words) was “reversed the resistant phenotype” and the “MIC of compound 103 (fold increase versus MIC for USA300 WT)” value [11] was 8 fold. For the same compound, the “MIC for an SpsB-overexpressing strain” value [12] was “increased MIC”, the “MIC of compound 103 (fold increase versus MIC for USA300 WT)” value [13] was greater than 32 fold and the “MIC of compound 103 (fold increase versus MIC for USA300 WT)” value ([14]; GNE0209) was greater than 32 fold. For the same compound, the resistance phenotype ([14]; GNE0209, deletion of SAUSA300_0351, result in words) was “had no effect on the resistance phenotype”, the “MIC of compound 103 (fold increase versus MIC for USA300 WT)” value [15] was 8 fold and the “MIC of compound 103 (fold increase versus MIC for USA300 WT)” value ([16]; GNE0175) was 1.0 fold. For the same compound, the resistance phenotype ([16]; GNE0175, SAUSA300_0352(K44A), result in words) was “reversed the resistant phenotype”, the “MIC of compound 103 (fold increase versus MIC for USA300 WT)” value [17] was 4 fold and the “MIC of compound 103 (fold increase versus MIC for USA300 WT)” value [18] was 4 fold. The “MIC of compound 103 (fold increase versus MIC for USA300 WT)” value [19] was 8 fold, the “MIC of compound 103 (fold increase versus MIC for USA300 WT)” value [20] was 4 fold and the “MIC of compound 103 (fold increase versus MIC for USA300 WT)” value ([21]; GNE0162) was greater than 32 fold. The resistance phenotype ([21]; GNE0162, overexpression of 3 ABC transporter genes, result in words) was “induced resistance”.
